Tests used:
[1] = refractive index (Na D-line) (dimensionless); xn = mol fraction of the nth substance listed; settings: 100.8 kPa, Liquid, Standard Abbe refractometry
[2] = xn = mol fraction of the nth substance listed; settings: 100.8 kPa, Liquid

CC(C)OC(C)C [diisopropyl ether] + CCO
Settings	mass density, 288.15 K [kg/m3]	mass density, 298.15 K [kg/m3]	mass density, 308.15 K [kg/m3]	refractive index, 288.15 K	refractive index, 298.15 K	refractive index, 308.15 K	viscosity, 288.15 K [mPa·s]	viscosity, 298.15 K [mPa·s]	viscosity, 308.15 K [mPa·s]
[1], x1 = 0.05	–	–	–	1.3657	1.36097	1.35649	–	–	–
[1], x1 = 0.1	–	–	–	1.36697	1.36212	1.35757	–	–	–
[1], x1 = 0.15	–	–	–	1.368	1.36316	1.35852	–	–	–
[1], x1 = 0.2	–	–	–	1.36883	1.36395	1.35926	–	–	–
[1], x1 = 0.25	–	–	–	1.36952	1.36457	1.3598	–	–	–
[1], x1 = 0.3	–	–	–	1.37013	1.36509	1.36021	–	–	–
[1], x1 = 0.35	–	–	–	1.37062	1.3655	1.36057	–	–	–
[1], x1 = 0.4	–	–	–	1.37102	1.36587	1.36083	–	–	–
[1], x1 = 0.45	–	–	–	1.37134	1.36612	1.36102	–	–	–
[1], x1 = 0.5	–	–	–	1.37158	1.36632	1.36113	–	–	–
[1], x1 = 0.55	–	–	–	1.37175	1.36644	1.36119	–	–	–
[1], x1 = 0.6	–	–	–	1.3719	1.36651	1.36118	–	–	–
[1], x1 = 0.65	–	–	–	1.37197	1.36652	1.36116	–	–	–
[1], x1 = 0.7	–	–	–	1.37196	1.36651	1.36112	–	–	–
[1], x1 = 0.75	–	–	–	1.37192	1.36645	1.36103	–	–	–
[1], x1 = 0.8	–	–	–	1.37188	1.36635	1.36089	–	–	–
[1], x1 = 0.85	–	–	–	1.37178	1.36621	1.36071	–	–	–
[1], x1 = 0.9	–	–	–	1.37162	1.36597	1.36042	–	–	–
[1], x1 = 0.95	–	–	–	1.37141	1.36566	1.36	–	–	–
[1], x1 = 1	–	–	–	1.37126	1.36537	1.35954	–	–	–
[2], x1 = 0.05	788.3	779.8	771	–	–	–	1.176	0.976	0.815
[2], x1 = 0.1	783.4	774.8	765.8	–	–	–	1.047	0.876	0.737
[2], x1 = 0.15	778.8	770	760.9	–	–	–	0.946	0.793	0.671
[2], x1 = 0.2	774.7	765.7	756.4	–	–	–	0.851	0.718	0.613
[2], x1 = 0.25	770.7	761.4	752	–	–	–	0.772	0.655	0.562
[2], x1 = 0.3	766.9	757.5	747.9	–	–	–	0.705	0.605	0.52
[2], x1 = 0.35	763.3	753.9	744.2	–	–	–	0.649	0.559	0.484
[2], x1 = 0.4	760	750.4	740.7	–	–	–	0.6	0.519	0.452
[2], x1 = 0.45	756.9	747.1	737.3	–	–	–	0.559	0.487	0.427
[2], x1 = 0.5	753.8	744.1	734.1	–	–	–	0.523	0.457	0.403
[2], x1 = 0.55	751	741.2	731.1	–	–	–	0.494	0.432	0.382
[2], x1 = 0.6	748.3	738.4	728.3	–	–	–	0.467	0.413	0.364
[2], x1 = 0.65	745.7	735.8	725.6	–	–	–	0.445	0.393	0.349
[2], x1 = 0.7	743.2	733.2	723	–	–	–	0.424	0.378	0.335
[2], x1 = 0.75	740.7	730.7	720.5	–	–	–	0.407	0.363	0.325
[2], x1 = 0.8	738.3	728.3	718	–	–	–	0.393	0.349	0.315
[2], x1 = 0.85	735.8	725.8	715.5	–	–	–	0.379	0.338	0.306
[2], x1 = 0.9	733.5	723.4	713.1	–	–	–	0.367	0.33	0.298
[2], x1 = 0.95	731.1	720.9	710.6	–	–	–	0.367	0.319	0.29
[2], x1 = 1	729	718.6	707.9	–	–	–	0.347	0.313	0.283
